Reference: patent US10800791B2, “Triazole ACC inhibitors and uses thereof” (Gilead Apollo, LLC, priority 2015, dated 2020)
Converted amounts (≈) assume the structure as drawn. Like-named read-outs stand apart in the source and are kept apart here.

Legend:
[1] = system: Diplodia maydis (Dm); test: Growth inhibition assay of fungal pathogens, Dm; format: cell-based; conditions: Stenocarpella maydis, 48 h, Diplodia maydis, read-out: Concentration at 90% Inhibition Dm
In short: (§1)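 Read-out: OD600 plus visual rating at 24 and 48 h, blank (media + 2% DMSO) subtracted. Percent inhibition was derived at 48 h versus the 2% DMSO control. Spores were grown in 17% V8 broth with compound at 50/10/2 or 2/0.4/0.08 ppm final.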

[2] = target: fungal (fACC2) (UniProt Q00955); conditions: read-out: fACC2 (in vitro ACC2 Inhibition Assay, IC50), ADP-Glo, 5 nM ACC2, 20 μM ATP, 20 μM acetyl-CoA
[3] = system: Septoria tritici (St); test: Growth inhibition assay of fungal pathogens, St; format: cell-based; conditions: Zymoseptoria tritici, 48 h, Septoria tritici, read-out: Concentration at 90% Inhibition St
In short: as §1

[4] = system: Fusarium moniliforme (Fm); test: Growth inhibition assay of fungal pathogens, Fm; format: cell-based; conditions: Fusarium verticillioides, 48 h, Fusarium moniliforme, read-out: Concentration at 90% Inhibition Fm
In short: as §1

[5] = system: Collectotrichum graminicola (Cg); test: Growth inhibition assay of fungal pathogens, Cg; format: cell-based; conditions: 48 h, Collectotrichum graminicola, read-out: Concentration at 90% Inhibition Cg
In short: as §1

[6] = system: Fusarium virguliforme (Fv); test: Growth inhibition assay of fungal pathogens, Fv; format: cell-based; conditions: 48 h, read-out: Concentration at 90% Inhibition Fv
In short: as §1

[7] = system: C. parapsilosis; test: Antifungal Activity Assay (broth microtiter MIC), C. parapsilosis; format: cell-based, Candida parapsilosis; conditions: Lodderomyces parapsilosis, ATCC22019, 48 h, ATCC 22019, 3 replicates, MIC recorded at 48 h, read-out: MIC, C. parapsilosis ATCC 22019
In short: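 Colonies from 24 h Sabouraud dextrose agar plates (35° C) are suspended in RPMI 1640+MOPS and diluted to give 2.5×10^3 CFU/mL in the wells. Plates are set up per CLSI M27-A3. Visual MIC is recorded at 48 h.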

[8] = system: Phytophthora capsici (Pc); test: Growth inhibition assay of fungal pathogens, Pc; format: cell-based; conditions: 48 h, read-out: Concentration at 90% Inhibition Pc
In short: as §1

[9] = target: human (hACC2) (Homo sapiens, UniProt O00763); test: In vitro ACC inhibition assay (ADP-Glo), hACC2; format: biochemical; conditions: 5 nM ACC2, 20 μM ATP, 20 μM acetyl-CoA
Protocol: The detailed procedure is as follows. […] 10 μL ADP glo reagent was added. […] 20 μL kinase detection reagent was added.

[10] = system: Rhizoctonia solani (Rs); test: Growth inhibition assay of fungal pathogens, Rs; format: cell-based; conditions: 48 h, mycelial plugs, read-out: Concentration at 90% Inhibition Rs
[11] = growth inhibition at 48 hours vs 2% DMSO control
[12] = growth inhibition vs 2% DMSO control at 48 hours

human (hACC2), sequence (O00763 whole entry): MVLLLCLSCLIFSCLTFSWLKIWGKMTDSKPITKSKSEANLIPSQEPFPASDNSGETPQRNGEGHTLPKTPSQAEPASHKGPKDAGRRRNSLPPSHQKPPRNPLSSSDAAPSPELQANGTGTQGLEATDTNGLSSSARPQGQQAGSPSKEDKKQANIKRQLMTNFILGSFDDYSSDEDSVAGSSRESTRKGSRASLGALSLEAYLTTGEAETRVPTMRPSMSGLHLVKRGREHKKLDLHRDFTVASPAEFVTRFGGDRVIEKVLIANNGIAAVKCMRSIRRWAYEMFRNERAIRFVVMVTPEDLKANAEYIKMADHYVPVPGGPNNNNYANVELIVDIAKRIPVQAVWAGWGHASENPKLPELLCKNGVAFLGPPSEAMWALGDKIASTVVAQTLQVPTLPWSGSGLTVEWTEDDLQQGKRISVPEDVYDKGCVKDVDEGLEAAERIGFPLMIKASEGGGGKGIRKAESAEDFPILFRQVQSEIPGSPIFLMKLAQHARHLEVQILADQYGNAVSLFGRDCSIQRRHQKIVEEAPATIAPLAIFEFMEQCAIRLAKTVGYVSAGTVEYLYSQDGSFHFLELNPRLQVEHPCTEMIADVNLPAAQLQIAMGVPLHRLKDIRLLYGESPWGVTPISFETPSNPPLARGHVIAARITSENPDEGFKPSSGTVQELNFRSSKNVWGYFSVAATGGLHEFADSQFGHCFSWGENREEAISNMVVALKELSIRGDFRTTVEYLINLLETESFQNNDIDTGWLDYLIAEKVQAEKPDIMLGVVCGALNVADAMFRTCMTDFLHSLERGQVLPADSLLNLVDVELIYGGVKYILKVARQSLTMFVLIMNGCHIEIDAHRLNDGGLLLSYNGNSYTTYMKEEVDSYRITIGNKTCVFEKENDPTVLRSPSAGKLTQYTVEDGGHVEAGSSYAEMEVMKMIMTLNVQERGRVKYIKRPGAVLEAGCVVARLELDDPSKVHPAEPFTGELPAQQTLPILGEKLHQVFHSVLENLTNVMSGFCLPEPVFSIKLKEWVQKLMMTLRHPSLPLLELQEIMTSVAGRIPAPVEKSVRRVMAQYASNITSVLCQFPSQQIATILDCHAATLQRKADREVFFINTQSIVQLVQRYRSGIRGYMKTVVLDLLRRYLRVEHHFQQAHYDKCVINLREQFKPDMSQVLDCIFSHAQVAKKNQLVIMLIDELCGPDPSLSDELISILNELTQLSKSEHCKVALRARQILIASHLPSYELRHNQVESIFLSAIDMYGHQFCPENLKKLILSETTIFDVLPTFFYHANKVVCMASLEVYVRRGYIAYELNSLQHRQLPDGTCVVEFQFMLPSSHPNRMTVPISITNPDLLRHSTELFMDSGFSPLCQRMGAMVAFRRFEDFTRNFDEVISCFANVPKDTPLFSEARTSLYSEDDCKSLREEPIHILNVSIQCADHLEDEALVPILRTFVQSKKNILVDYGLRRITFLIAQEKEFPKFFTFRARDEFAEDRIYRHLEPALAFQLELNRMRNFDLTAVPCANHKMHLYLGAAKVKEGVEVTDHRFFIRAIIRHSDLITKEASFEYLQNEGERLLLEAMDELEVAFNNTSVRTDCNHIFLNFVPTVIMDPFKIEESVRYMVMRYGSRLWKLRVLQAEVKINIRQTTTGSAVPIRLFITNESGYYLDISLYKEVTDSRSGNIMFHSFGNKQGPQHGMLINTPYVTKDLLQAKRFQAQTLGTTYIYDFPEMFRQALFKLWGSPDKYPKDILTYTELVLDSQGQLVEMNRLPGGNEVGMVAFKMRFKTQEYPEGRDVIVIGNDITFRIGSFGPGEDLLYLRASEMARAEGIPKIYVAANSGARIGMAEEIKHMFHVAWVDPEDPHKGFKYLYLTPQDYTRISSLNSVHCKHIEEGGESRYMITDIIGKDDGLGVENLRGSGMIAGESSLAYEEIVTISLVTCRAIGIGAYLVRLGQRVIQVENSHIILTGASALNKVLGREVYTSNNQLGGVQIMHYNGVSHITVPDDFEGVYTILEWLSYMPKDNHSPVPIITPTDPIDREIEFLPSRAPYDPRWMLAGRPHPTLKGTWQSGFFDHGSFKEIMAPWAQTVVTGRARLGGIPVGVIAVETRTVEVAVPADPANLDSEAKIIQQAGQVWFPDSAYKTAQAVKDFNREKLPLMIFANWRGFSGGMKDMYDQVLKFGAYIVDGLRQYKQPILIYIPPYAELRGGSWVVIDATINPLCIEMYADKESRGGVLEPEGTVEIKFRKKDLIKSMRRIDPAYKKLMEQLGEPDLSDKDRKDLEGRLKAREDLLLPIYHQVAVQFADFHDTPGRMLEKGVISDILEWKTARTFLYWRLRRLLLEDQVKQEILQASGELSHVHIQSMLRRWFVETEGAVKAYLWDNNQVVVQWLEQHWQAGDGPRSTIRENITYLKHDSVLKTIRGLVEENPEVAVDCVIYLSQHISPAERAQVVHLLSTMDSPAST
fungal (fACC2), sequence (Q00955 whole entry): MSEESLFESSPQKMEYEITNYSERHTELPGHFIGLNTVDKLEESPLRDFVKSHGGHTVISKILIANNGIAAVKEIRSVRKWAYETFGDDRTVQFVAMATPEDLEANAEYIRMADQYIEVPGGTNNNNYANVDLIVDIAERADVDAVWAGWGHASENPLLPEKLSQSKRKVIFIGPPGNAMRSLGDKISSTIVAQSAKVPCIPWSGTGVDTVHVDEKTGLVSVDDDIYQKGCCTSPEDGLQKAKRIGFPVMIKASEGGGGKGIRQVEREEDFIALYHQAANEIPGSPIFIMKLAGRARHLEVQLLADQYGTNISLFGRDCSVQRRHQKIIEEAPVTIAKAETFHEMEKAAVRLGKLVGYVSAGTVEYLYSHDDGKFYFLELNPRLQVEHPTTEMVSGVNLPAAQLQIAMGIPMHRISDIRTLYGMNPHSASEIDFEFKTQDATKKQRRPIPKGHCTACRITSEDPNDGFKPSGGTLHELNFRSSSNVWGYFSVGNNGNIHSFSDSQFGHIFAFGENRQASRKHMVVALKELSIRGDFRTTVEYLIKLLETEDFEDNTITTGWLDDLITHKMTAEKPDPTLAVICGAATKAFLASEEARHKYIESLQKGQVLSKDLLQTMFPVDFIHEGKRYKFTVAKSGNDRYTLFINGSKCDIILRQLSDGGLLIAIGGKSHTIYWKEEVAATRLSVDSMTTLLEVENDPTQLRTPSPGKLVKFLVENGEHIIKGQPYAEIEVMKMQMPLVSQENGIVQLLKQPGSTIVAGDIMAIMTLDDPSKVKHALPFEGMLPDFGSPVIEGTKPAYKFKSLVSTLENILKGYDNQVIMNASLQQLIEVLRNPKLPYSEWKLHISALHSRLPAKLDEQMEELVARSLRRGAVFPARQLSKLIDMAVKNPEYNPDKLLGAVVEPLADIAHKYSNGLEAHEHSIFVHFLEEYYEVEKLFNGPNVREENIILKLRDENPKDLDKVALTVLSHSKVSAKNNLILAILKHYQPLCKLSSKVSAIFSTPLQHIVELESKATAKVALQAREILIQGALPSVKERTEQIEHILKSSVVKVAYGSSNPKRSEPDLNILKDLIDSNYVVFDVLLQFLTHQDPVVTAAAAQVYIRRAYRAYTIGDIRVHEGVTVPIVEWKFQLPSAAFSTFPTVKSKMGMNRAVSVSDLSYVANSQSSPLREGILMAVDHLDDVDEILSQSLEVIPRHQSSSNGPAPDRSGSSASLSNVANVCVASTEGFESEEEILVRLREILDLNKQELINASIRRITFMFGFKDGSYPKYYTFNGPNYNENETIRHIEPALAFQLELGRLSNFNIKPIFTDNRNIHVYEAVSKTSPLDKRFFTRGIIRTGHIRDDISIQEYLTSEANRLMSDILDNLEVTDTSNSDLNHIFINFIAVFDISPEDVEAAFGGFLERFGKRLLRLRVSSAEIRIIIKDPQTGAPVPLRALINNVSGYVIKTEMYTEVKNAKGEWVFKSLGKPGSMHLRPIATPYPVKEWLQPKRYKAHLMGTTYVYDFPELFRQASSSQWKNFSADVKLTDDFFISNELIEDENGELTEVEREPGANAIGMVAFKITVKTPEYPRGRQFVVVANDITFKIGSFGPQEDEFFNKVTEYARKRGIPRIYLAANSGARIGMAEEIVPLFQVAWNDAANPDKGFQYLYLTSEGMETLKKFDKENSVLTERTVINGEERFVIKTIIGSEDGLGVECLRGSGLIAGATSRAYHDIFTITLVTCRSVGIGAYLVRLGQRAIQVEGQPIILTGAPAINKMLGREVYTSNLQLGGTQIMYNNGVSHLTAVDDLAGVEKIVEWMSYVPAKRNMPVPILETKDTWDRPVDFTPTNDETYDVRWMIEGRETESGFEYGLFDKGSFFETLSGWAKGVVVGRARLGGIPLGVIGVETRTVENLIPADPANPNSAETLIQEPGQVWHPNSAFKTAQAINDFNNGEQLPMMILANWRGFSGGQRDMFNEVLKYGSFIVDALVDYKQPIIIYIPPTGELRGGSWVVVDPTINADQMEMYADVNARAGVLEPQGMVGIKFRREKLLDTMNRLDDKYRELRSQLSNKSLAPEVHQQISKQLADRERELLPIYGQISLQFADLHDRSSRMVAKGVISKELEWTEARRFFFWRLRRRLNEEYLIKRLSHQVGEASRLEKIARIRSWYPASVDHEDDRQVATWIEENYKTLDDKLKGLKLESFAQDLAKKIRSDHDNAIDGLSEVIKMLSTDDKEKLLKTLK

| SMILES | IC90 [1, 11] [µg/mL] | IC90 [1, 12] [µg/mL] | IC50 ([2]; Table 2a) [nM] | IC50 ([2]; Table 2b, additional results) [nM] | IC90 [3, 11] [µg/mL] | IC90 [3, 12] [µg/mL] | IC90 [4, 11] [µg/mL] | IC90 [4, 12] [µg/mL] | IC90 [5, 11] [µg/mL] | IC90 [5, 12] [µg/mL] | IC90 [6, 11] [µg/mL] | IC90 [6, 12] [µg/mL] | MIC ([7]; Table 3a) [µg/mL] | MIC ([7]; Table 3b (additional results)) [µg/mL] | IC90 [8, 11] [µg/mL] | IC90 [8, 12] [µg/mL] | IC50 ([9]; Table 2a) [nM] | IC50 ([9]; Table 2b, additional results) [nM] | IC90 [10, 11] [µg/mL] | IC90 [10, 12] [µg/mL] |
| --- | --- | --- | --- | --- | --- | --- | --- | --- | --- | --- | --- | --- | --- | --- | --- | --- | --- | --- | --- | --- |
| COCCO[C@@H](Cn1c(=O)n(C(C)C(=O)N2CCCC2)c(=O)c2c(C)c(-n3nccn3)sc21)c1cc(F)ccc1OC (stereo partly drawn) [Compound I-64, 1-((R)-2-(5-fluoro-2-methoxyphenyl)-2-(2-methoxy-ethoxy)ethyl)-5-methyl-3-(1-oxo-1-(pyrrolidin-1-yl)propan-2-yl)-6-(2H-1,2,3-triazol-2-yl)thieno[2,3-d]pyrimidine-2,4(1H,3H)-dione] | 10 (≈ 16.6 µM) | > 50 | 1 to 5 | 1 to 5 | > 50 | > 50 | 0.4 (≈ 0.666 µM) | 0.4 (≈ 0.666 µM) | 10 (≈ 16.6 µM) | > 50 | 0.4 (≈ 0.666 µM) | 0.4 (≈ 0.666 µM) | 2.1 to 4 (≈ 3.5 to 6.66 µM) | 1.01 to 2 (≈ 1.68 to 3.33 µM) | > 50 | > 50 | 10 to 40 | 10 to 40 | 2 (≈ 3.33 µM) | 2 (≈ 3.33 µM) |
| COCCO[C@@H](Cn1c(=O)n([C@H](C)C(=O)N2CCCC2)c(=O)c2c(C)c(-n3nccn3)sc21)c1cc(F)ccc1OC [Compound I-65, 1-((R)-2-(5-fluoro-2-methoxyphenyl)-2-(2-methoxy-ethoxy)ethyl)-5-methyl-3-((R)-1-oxo-1-(pyrrolidin-1-yl)propan-2-yl)-6-(2H-1,2,3-triazol-2-yl)thieno[2,3-d]pyrimidine-2,4(1H,3H)-dione] | 10 (≈ 16.6 µM) | > 50 | 0.4 to 1 | 0.3 to 1 | > 50 | > 50 | 0.4 (≈ 0.666 µM) | 0.4 (≈ 0.666 µM) | 10 (≈ 16.6 µM) | > 50 | 0.4 (≈ 0.666 µM) | 0.4 (≈ 0.666 µM) | 2.1 to 4 (≈ 3.5 to 6.66 µM) | 1.01 to 2 (≈ 1.68 to 3.33 µM) | > 50 | > 50 | 10 to 40 | 10 to 40 | 2 (≈ 3.33 µM) | 2 (≈ 3.33 µM) |
| COCCCO[C@@H](Cn1c(=O)n(C(C)(C)C(=O)N2CCCC2)c(=O)c2c(C)c(-n3nccn3)sc21)c1cc(F)ccc1OC [Compound I-68, (R)-1-(2-(5-fluoro-2-methoxyphenyl)-2-(3-methoxy-propoxy)ethyl)-5-methyl-3-(2-methyl-1-oxo-1-(pyrrolidin-1-yl)propan-2-yl)-6-(2H-1,2,3-triazol-2-yl)thieno[2,3-d]pyrimidine-2,4(1H,3H)-dione] | 2 (≈ 3.18 µM) | 2 (≈ 3.18 µM) | 1 to 5 | 1 to 5 | > 50 | > 50 | 0.08 (≈ 0.127 µM) | 0.08 (≈ 0.127 µM) | 2 (≈ 3.18 µM) | 2 (≈ 3.18 µM) | 0.4 (≈ 0.636 µM) | 0.4 (≈ 0.636 µM) | – | 1.01 to 2 (≈ 1.61 to 3.18 µM) | > 50 | > 50 | 5 to 10 | 5 to 10 | 0.4 (≈ 0.636 µM) | 0.4 (≈ 0.636 µM) |
